Test results taken from US20240180855A1, “BIOACTIVE PRODUCTS” (priority 2021, published 2024).
Where “and” joins values, the source holds several entries; their conditions need not be identical. Identical values can stand only once. Like-named read-outs stand apart in the source and are kept apart here.

What was measured:
wheat [1] = assay: Wheat growth after seed treatment with reverse transcription, integration and protease inhibitors (Example 4); type: in vivo; conditions: seeds treated 1 hour at 37° C.; cultivation 23° C.
wheat [2] = assay: Wheat growth after one-time watering with products (Example 7); type: in vivo; design: Shoot length / Root length: unit not given here; conditions: one-time watering 1000 μg/ml, 200 ml for 20 grains; day 5
[3] = test system: Wheat seeds (Triticum aestivum L.); assay: Wheat seed germination on potato dextrose agar after soaking in products (Example 1); type: in vivo; conditions: seeds soaked 1 hour; nucleases 100 μg/ml at 37° C., M4 group products 0.5%
Source text: Wheat seeds (Triticum aestivum L., healthy, not infected) were washed with water with soap, then without soap. […] Then the seeds (8 pieces) were laid out on potato dextrose agar (https://himedialabs.com/TD/M096.pdf). Treatment with test products.

[4] = test system: Wheat seeds (Triticum aestivum L.); assay: Wheat growth under stress conditions (18° C.) after seed soaking (Example 2); type: in vivo; conditions: seeds soaked 1 hour at 37° C., 100 μg/ml, cultivation 18° C.; for Root length (cm) / Shoot length (cm): after 5 days
Procedure: The cultivation temperature was 18° C., instead of the required 23° C. The assessment of the state of the plants was carried out after 5 days (table 2).

wheat [5] = assay: Wheat growth after seed treatment with complexes of inhibitors and nucleases (Example 5); type: in vivo; conditions: seeds treated 1 hour at 37° C.; cultivation 23° C.
Procedure: Plant: wheat Treatment: The seeds were treated with various products for 1 hour, at 37° C. […] Cultivation temperature 23° C.

[6] = test system: Fish (Trout) fish eggs contaminated with various pathogens
[7] = test system: Fungi of the Saprolegnia spp.; assay: Time to inactivation of Saprolegnia fungi (Example 15); type: cell-based; design: key: —: No antimicrobial activity
Procedure: Fungi in the amount of 10e8 cells were added to 1.0 ml of a solution of the test substance and after incubation were washed by PBS with centrifugation, resuspended in buffer, and plated on potato agar to assess survival.

wheat [8] = conditions: in vivo
[9] = test system: patients with seborrheic dermatitis; assay: Treatment of seborrheic dermatitis (Example 23); type: in vivo, human; conditions: excipient alone, regimen not given; assessed within 14 days
Procedure: The efficacy of the drugs was assessed within 14 days, using objective and subjective measures (the prevalence of the disease, the degree of inflammation and infiltration of skin elements, the severity of itching, peeling and crusting). Dermatoscopy was done using the Heine, mini 3000 LED.

wheat [10] = assay: Regulation of wheat development after seed treatment (Example 3); type: in vivo; conditions: seeds treated 1 hour at 37° C.; cultivation 23° C.
Procedure: Plant: wheat. Treatment: The wheat seeds were treated with various nucleases or products of the M4 group for 1 hour, at 37° C. […] Cultivation temperature 23° C.

[11] = test system: Red Turkish Carnation Seeds; assay: Full cycle of plant growth after seed treatment with nucleases (Example 12); type: in vivo; conditions: seeds incubated with 100 μg/ml at 37° C. for 60 minutes

Nc1nc(NC2CC2)c2ncn([C@H]3C=C[C@@H](CO)C3)c2n1 [Abacavir]
Chlorophyll total (wheat [1]): 51.8 mg/g | Emergence (%) (wheat [1]): 50% | Root lenght (median) (wheat [1]): 11 | Shoot length (median) (wheat [1]): 13

[H]/N=C(\N/C(=N/[H])NCCCCCCNC(=N)NC(=N)Nc1ccc(Cl)cc1)Nc1ccc(Cl)cc1 [Chlorhexidine]
Emergence (%) (wheat [2]): 50% | Root length (wheat [2]): 3.6 | Shoot length (wheat [2]): 6.9 | Germination (%) at day 5 Day 3 [3]: 54% | Median shoot length (mm) Day 3 [3]: 14.6 mm | Emergence at day 5 [4]: 53% | Root length (cm) [4]: 1.9 cm | Shoot length (cm) [4]: 6.3 cm

COc1cc2c(cc1Cc1cccc(Cl)c1F)c(=O)c(C(=O)O)cn2[C@H](CO)C(C)C [Elvitegravir]
Emergence at day 5 [4]: 65% | Root length (cm) [4]: 2.6 cm | Shoot length (cm) [4]: 9.9 cm

Cc1cc(C#N)cc(C)c1Oc1nc(Nc2ccc(C#N)cc2)nc(N)c1Br [Etravirine]
Chlorophyll total (wheat [5]): 25.0 mg/g | Emergence (%) (wheat [5]): 75% | Root lenght (wheat [5]): 5.5 | Shoot length (wheat [5]): 7.4 | Chlorophyll total (wheat [1]): 58.7 mg/g | Emergence (%) (wheat [1]): 55% | Root lenght (median) (wheat [1]): 9 | Shoot length (median) (wheat [1]): 13

Nc1ccn([C@@H]2CS[C@H](CO)O2)c(=O)n1 [Lamivudine]
Chlorophyll total (wheat [1]): 54.3 mg/g | Emergence (%) (wheat [1]): 55% | Root lenght (median) (wheat [1]): 9 | Shoot length (median) (wheat [1]): 13

CN(C)c1ccc(C(=C2C=CC(=[N+](C)C)C=C2)c2ccccc2)cc1 [Malachite green]
Growth after plating [6]: Lawn

OC[C@@H](O)[C@@H](O)[C@H](O)[C@H](O)CO [Mannit (0.01%), Mannitol]
Time (minutes) to reach 100% inactivation ([7]; 0.005%): — | Time (minutes) to reach 100% inactivation ([7]; 0.01%): — | Time (minutes) to reach 100% inactivation ([7]; 0.05%): — | Time (minutes) to reach 100% inactivation ([7]; 0.1%): — | Time (minutes) to reach 100% inactivation ([7]; 0.5%): —

CN(C)c1ccc2nc3ccc(=[N+](C)C)cc-3sc2c1 [Methylene blue]
Growth after plating [6]: Lawn

O=P([O-])([O-])O.[Na+].[Na+] [Na2HPO4 (0.01%), Na2HPO4]
Time (minutes) to reach 100% inactivation ([7]; 0.005%): — | Time (minutes) to reach 100% inactivation ([7]; 0.01%): — | Time (minutes) to reach 100% inactivation ([7]; 0.05%): — | Time (minutes) to reach 100% inactivation ([7]; 0.1%): — | Time (minutes) to reach 100% inactivation ([7]; 0.5%): — | Root length (cm) (wheat [8]): 7.7 cm and 5.9 cm | Seedling length (cm) (wheat [8]): 8.4 cm and 6.1 cm

Cc1ccnc2c1NC(=O)c1cccnc1N2C1CC1 [Nevirapine]
Chlorophyll total (wheat [1]): 52.9 mg/g | Emergence (%) (wheat [1]): 25% | Root lenght (median) (wheat [1]): 0 | Shoot length (median) (wheat [1]): 0

Cc1nnc(C(=O)NC(C)(C)c2nc(C(=O)NCc3ccc(F)cc3)c(O)c(=O)n2C)o1 [Raltegravir]
Chlorophyll total (wheat [5]): 25.9 mg/g | Emergence (%) (wheat [5]): 42% | Root lenght (wheat [5]): 1.9 | Shoot length (wheat [5]): 5.7 | Emergence at day 5 [4]: 71% | Root length (cm) [4]: 2.6 cm | Shoot length (cm) [4]: 9.8 cm | Chlorophyll total (wheat [1]): 56.9 mg/g | Emergence (%) (wheat [1]): 60% | Root lenght (median) (wheat [1]): 8 | Shoot length (median) (wheat [1]): 12

C[C@H](Cn1cnc2c(N)ncnc21)OCP(=O)(O)O [Tenofovir]
Chlorophyll total (wheat [1]): 57.7 mg/g | Emergence (%) (wheat [1]): 45% | Root lenght (median) (wheat [1]): 9 | Shoot length (median) (wheat [1]): 14

O=S(=O)([O-])[O-].[Zn+2] [ZnSO4 0.01%, ZnSO4]
Time (minutes) to reach 100% inactivation ([7]; 0.005%): — | Time (minutes) to reach 100% inactivation ([7]; 0.01%): — | Time (minutes) to reach 100% inactivation ([7]; 0.05%): — | Time (minutes) to reach 100% inactivation ([7]; 0.1%): — | Time (minutes) to reach 100% inactivation ([7]; 0.5%): —* | Root length (cm) (wheat [8]): 5.7 cm and 7.1 cm | Seedling length (cm) (wheat [8]): 6.1 cm and 8.0 cm | Day at which prevalence of the symptoms was reduced by 80% [9]: >14 days

DNAse
Chlorophyll total (wheat [10]): 49.1 | Emergence (%) (wheat [10]): 67% | Leaf length (cm) (wheat [10]): 2.8 cm | Leaf width (cm) (wheat [10]): 1.4 cm | Number of leaves (wheat [10]): 2 + 1 | Root length (cm) (wheat [10]): 15.2 cm | Shoot length (cm) (wheat [10]): 5.8 cm | Weight (wheat [10]): 0.6 g | Chlorophyll total (wheat [5]): 24.7 mg/g | Emergence (%) (wheat [5]): 73% | Root lenght (wheat [5]): 3.6 | Shoot length (wheat [5]): 5.2 | Germination (%) at day 5 Day 3 [3]: 75% | Median shoot length (mm) Day 3 [3]: 24.6 mm | Emergence at day 5 [4]: 64% | Root length (cm) [4]: 2.1 cm | Shoot length (cm) [4]: 6.9 cm | Emergence (%) [11]: 95% | Height on day 99 [11]: 7+/−1 | Root branching at 99 days (words in the root length cell) [11]: branched | Root length at 99 days [11]: 7+/−0.5 | The appearance of the first leaves [11]: 5th day | The beginning of flowering [11]: 183 days | The emergence of the buds [11]: 174 days | Weight of seeds on day 258/12 plants [11]: 0.24 g

Trypsin
Chlorophyll total (wheat [5]): 30.3 mg/g | Emergence (%) (wheat [5]): 49% | Root lenght (wheat [5]): 5.8 | Shoot length (wheat [5]): 2.5
